Test results: PubChem BioAssay (NCI)
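Protocol summary: plate cells (96-well), add compound at 5 concentrations, incubate 48 h, interpolate endpoints linearly. At the TGI there is no net growth.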

Columns and labels:
Assay in all cases: DTP human tumour cell line panel, 48 h
T-47D breast = tested on: T-47D breast
HCT-116 colon = tested on: HCT-116 colon
NCI/ADR-RES ovarian = tested on: NCI/ADR-RES ovarian
NCI-H522 lung = tested on: NCI-H522 lung
SNB-19 CNS = tested on: SNB-19 CNS
M14 melanoma = tested on: M14 melanoma
UACC-62 melanoma = tested on: UACC-62 melanoma
RXF 393 renal = tested on: RXF 393 renal
786-0 renal = tested on: 786-0 renal
OVCAR-3 ovarian = tested on: OVCAR-3 ovarian
HCC-2998 colon = tested on: HCC-2998 colon
DU-145 prostate = tested on: DU-145 prostate
IGROV1 ovarian = tested on: IGROV1 ovarian
KM12 colon = tested on: KM12 colon
ACHN renal = tested on: ACHN renal
U251 CNS = tested on: U251 CNS
HOP-92 NSCLC = tested on: HOP-92 NSCLC
A549 NSCLC = tested on: A549 NSCLC
MDA-N = tested on: MDA-N
MOLT-4 leukemia = tested on: MOLT-4 leukemia
LOX IMVI melanoma = tested on: LOX IMVI melanoma
OVCAR-8 ovarian = tested on: OVCAR-8 ovarian
RPMI-8226 leukemia = tested on: RPMI-8226 leukemia
BT-549 breast = tested on: BT-549 breast
K-562 leukemia = tested on: K-562 leukemia
TK-10 renal = tested on: TK-10 renal
MCF7 breast = tested on: MCF7 breast
A498 renal = tested on: A498 renal
SK-MEL-5 melanoma = tested on: SK-MEL-5 melanoma
NCI-H226 lung = tested on: NCI-H226 lung
SF-268 CNS = tested on: SF-268 CNS
SNB-75 CNS = tested on: SNB-75 CNS
SK-MEL-28 melanoma = tested on: SK-MEL-28 melanoma
OVCAR-5 ovarian = tested on: OVCAR-5 ovarian
EKVX NSCLC = tested on: EKVX NSCLC
NCI-H23 lung = tested on: NCI-H23 lung
MDA-MB-231 breast = tested on: MDA-MB-231 breast
SR leukemia = tested on: SR leukemia
SF-295 CNS = tested on: SF-295 CNS
SW-620 colon = tested on: SW-620 colon
HCT-15 colon = tested on: HCT-15 colon
SK-OV-3 ovarian = tested on: SK-OV-3 ovarian
HS 578T breast = tested on: HS 578T breast
CAKI-1 renal = tested on: CAKI-1 renal
HT29 colon = tested on: HT29 colon
SN12C renal = tested on: SN12C renal
CCRF-CEM leukemia = tested on: CCRF-CEM leukemia
SK-MEL-2 melanoma = tested on: SK-MEL-2 melanoma
PC-3 prostate = tested on: PC-3 prostate
HL-60(TB) leukemia = tested on: HL-60(TB) leukemia
OVCAR-4 ovarian = tested on: OVCAR-4 ovarian
SF-539 CNS = tested on: SF-539 CNS
NCI-H460 lung = tested on: NCI-H460 lung
MALME-3M melanoma = tested on: MALME-3M melanoma
UACC-257 melanoma = tested on: UACC-257 melanoma
MDA-MB-435 = tested on: MDA-MB-435
UO-31 renal = tested on: UO-31 renal
HOP-62 NSCLC = tested on: HOP-62 NSCLC
COLO 205 colon = tested on: COLO 205 colon

Q: For `O=C1c2c(F)c(F)c(F)c(F)c2SC2=Nc3cccc4cccc(c34)N12`, which TGI (T-47D breast) is on record?
A: 4.9 µM

Q: What about the TGI (HCT-116 colon) of the same compound?
A: 11.9 µM

Q: And the TGI (NCI/ADR-RES ovarian)?
A: 10.2 µM

Q: And the TGI (NCI-H522 lung)?
A: 9.01 µM

Q: And the TGI (SNB-19 CNS)?
A: 21.1 µM

Q: What about the TGI (M14 melanoma) of the same compound?
A: 13.1 µM

Q: And the TGI (UACC-62 melanoma)?
A: 11 µM

Q: What about the TGI (RXF 393 renal) of the same compound?
A: 11.1 µM

Q: And the TGI (786-0 renal)?
A: 16.9 µM

Q: What about the TGI (OVCAR-3 ovarian) of the same compound?
A: 7.58 µM

Q: What about the TGI (HCC-2998 colon) of the same compound?
A: 28.5 µM

Q: And the TGI (DU-145 prostate)?
A: 24.9 µM

Q: What about the TGI (IGROV1 ovarian) of the same compound?
A: 24.1 µM

Q: And the TGI (KM12 colon)?
A: 10.2 µM

Q: What about the TGI (ACHN renal) of the same compound?
A: 16.8 µM

Q: And the TGI (U251 CNS)?
A: 10.7 µM

Q: What about the TGI (HOP-92 NSCLC) of the same compound?
A: 6.7 µM

Q: And the TGI (A549 NSCLC)?
A: 39.8 µM

Q: What about the TGI (MDA-N) of the same compound?
A: 16.7 µM

Q: What about the TGI (MOLT-4 leukemia) of the same compound?
A: 6.01 µM

Q: What about the TGI (LOX IMVI melanoma) of the same compound?
A: 7.79 µM

Q: And the TGI (OVCAR-8 ovarian)?
A: 17.7 µM

Q: What about the TGI (RPMI-8226 leukemia) of the same compound?
A: 8.02 µM

Q: And the TGI (BT-549 breast)?
A: 23.9 µM

Q: What about the TGI (K-562 leukemia) of the same compound?
A: 4.49 µM

Q: And the TGI (TK-10 renal)?
A: 26.1 µM

Q: What about the TGI (MCF7 breast) of the same compound?
A: 16 µM

Q: What about the TGI (A498 renal) of the same compound?
A: 35.2 µM

Q: What about the TGI (SK-MEL-5 melanoma) of the same compound?
A: 28.4 µM

Q: What about the TGI (NCI-H226 lung) of the same compound?
A: 28.7 µM

Q: And the TGI (SF-268 CNS)?
A: 13.7 µM

Q: What about the TGI (SNB-75 CNS) of the same compound?
A: 25.5 µM

Q: What about the TGI (SK-MEL-28 melanoma) of the same compound?
A: 15.9 µM

Q: And the TGI (OVCAR-5 ovarian)?
A: 30.9 µM

Q: What about the TGI (EKVX NSCLC) of the same compound?
A: 26.5 µM

Q: What about the TGI (NCI-H23 lung) of the same compound?
A: 10.9 µM

Q: What about the TGI (MDA-MB-231 breast) of the same compound?
A: 11.7 µM

Q: What about the TGI (SR leukemia) of the same compound?
A: 15.2 µM

Q: And the TGI (SF-295 CNS)?
A: 30.9 µM

Q: And the TGI (SW-620 colon)?
A: 12 µM

Q: And the TGI (HCT-15 colon)?
A: 14.8 µM

Q: And the TGI (SK-OV-3 ovarian)?
A: 23.2 µM

Q: What about the TGI (HS 578T breast) of the same compound?
A: 7.73 µM

Q: And the TGI (CAKI-1 renal)?
A: 29 µM

Q: What about the TGI (HT29 colon) of the same compound?
A: 21.4 µM

Q: And the TGI (SN12C renal)?
A: 10.4 µM

Q: And the TGI (CCRF-CEM leukemia)?
A: > 25.1 µM

Q: And the TGI (SK-MEL-2 melanoma)?
A: 7.89 µM

Q: What about the TGI (PC-3 prostate) of the same compound?
A: 17.2 µM

Q: What about the TGI (HL-60(TB) leukemia) of the same compound?
A: > 20 µM

Q: And the TGI (OVCAR-4 ovarian)?
A: 9 µM

Q: What about the TGI (SF-539 CNS) of the same compound?
A: 14 µM

Q: And the TGI (NCI-H460 lung)?
A: 29.3 µM

Q: What about the TGI (MALME-3M melanoma) of the same compound?
A: 9.24 µM

Q: What about the TGI (UACC-257 melanoma) of the same compound?
A: 13.2 µM

Q: What about the TGI (MDA-MB-435) of the same compound?
A: 12.8 µM

Q: What about the TGI (UO-31 renal) of the same compound?
A: 21.7 µM

Q: What about the TGI (HOP-62 NSCLC) of the same compound?
A: 27.2 µM

Q: And the TGI (COLO 205 colon)?
A: 22.8 µM

Q: Which TGI (T-47D breast) does the source give for `CC1(C)OC2OC(C(=O)c3ccccc3)C3OC(C)(C)OC3C2O1` (centres undefined) here?
A: > 100 µM

Q: And the TGI (HCT-116 colon)?
A: > 100 µM

Q: What about the TGI (NCI/ADR-RES ovarian) of the same compound?
A: > 100 µM

Q: What about the TGI (NCI-H522 lung) of the same compound?
A: > 100 µM

Q: What about the TGI (SNB-19 CNS) of the same compound?
A: > 100 µM

Q: And the TGI (M14 melanoma)?
A: > 100 µM

Q: And the TGI (UACC-62 melanoma)?
A: > 100 µM

Q: What about the TGI (RXF 393 renal) of the same compound?
A: > 100 µM

Q: And the TGI (786-0 renal)?
A: > 100 µM

Q: What about the TGI (OVCAR-3 ovarian) of the same compound?
A: > 100 µM

Q: And the TGI (HCC-2998 colon)?
A: > 100 µM

Q: And the TGI (DU-145 prostate)?
A: > 100 µM

Q: And the TGI (IGROV1 ovarian)?
A: > 100 µM

Q: What about the TGI (KM12 colon) of the same compound?
A: > 100 µM

Q: What about the TGI (ACHN renal) of the same compound?
A: > 100 µM

Q: What about the TGI (U251 CNS) of the same compound?
A: > 100 µM

Q: What about the TGI (HOP-92 NSCLC) of the same compound?
A: > 100 µM

Q: What about the TGI (MDA-N) of the same compound?
A: > 100 µM

Q: And the TGI (MOLT-4 leukemia)?
A: > 100 µM

Q: What about the TGI (LOX IMVI melanoma) of the same compound?
A: > 100 µM

Q: What about the TGI (OVCAR-8 ovarian) of the same compound?
A: > 100 µM

Q: What about the TGI (RPMI-8226 leukemia) of the same compound?
A: > 100 µM

Q: What about the TGI (BT-549 breast) of the same compound?
A: > 100 µM

Q: And the TGI (K-562 leukemia)?
A: > 100 µM

Q: And the TGI (TK-10 renal)?
A: > 100 µM

Q: What about the TGI (MCF7 breast) of the same compound?
A: > 100 µM

Q: What about the TGI (A498 renal) of the same compound?
A: > 100 µM

Q: What about the TGI (SK-MEL-5 melanoma) of the same compound?
A: > 100 µM

Q: And the TGI (NCI-H226 lung)?
A: > 100 µM

Q: What about the TGI (SF-268 CNS) of the same compound?
A: > 100 µM

Q: What about the TGI (SNB-75 CNS) of the same compound?
A: > 100 µM

Q: And the TGI (OVCAR-5 ovarian)?
A: > 100 µM

Q: What about the TGI (EKVX NSCLC) of the same compound?
A: > 100 µM

Q: What about the TGI (NCI-H23 lung) of the same compound?
A: > 100 µM

Q: What about the TGI (MDA-MB-231 breast) of the same compound?
A: > 100 µM

Q: What about the TGI (SR leukemia) of the same compound?
A: > 100 µM

Q: And the TGI (SF-295 CNS)?
A: > 100 µM

Q: And the TGI (SW-620 colon)?
A: > 100 µM

Q: What about the TGI (HCT-15 colon) of the same compound?
A: > 100 µM

Q: And the TGI (SK-OV-3 ovarian)?
A: > 100 µM

Q: And the TGI (HS 578T breast)?
A: > 100 µM

Q: And the TGI (CAKI-1 renal)?
A: > 100 µM

Q: What about the TGI (SN12C renal) of the same compound?
A: > 100 µM

Q: And the TGI (CCRF-CEM leukemia)?
A: > 100 µM

Q: What about the TGI (SK-MEL-2 melanoma) of the same compound?
A: > 100 µM

Q: And the TGI (PC-3 prostate)?
A: > 100 µM

Q: What about the TGI (HL-60(TB) leukemia) of the same compound?
A: > 100 µM

Q: What about the TGI (OVCAR-4 ovarian) of the same compound?
A: > 100 µM

Q: What about the TGI (SF-539 CNS) of the same compound?
A: > 100 µM

Q: And the TGI (NCI-H460 lung)?
A: > 100 µM

Q: What about the TGI (UACC-257 melanoma) of the same compound?
A: > 100 µM

Q: What about the TGI (MDA-MB-435) of the same compound?
A: > 100 µM

Q: What about the TGI (UO-31 renal) of the same compound?
A: > 100 µM

Q: What about the TGI (HOP-62 NSCLC) of the same compound?
A: > 100 µM

Q: And the TGI (COLO 205 colon)?
A: > 100 µM
